From patent US8106055B2, “Substituted amide compounds” (Gruenenthal GmbH, priority 2007, dated 2012)

Assays:
[1] = target: T1, human bradykinin 1 receptor (B1R) (Homo sapiens, UniProt P46663); experiment: Functional investigation on the human bradykinin 1 receptor (B1R), Ca2+ FLIPR assay in CHO K1 hB1R cells; assay type: cell-based; conditions: test substance 10 μM, Ca2+ FLIPR, CHO K1 hB1R cells; for inhibition at 10 µM: CHO-K1, B1R antagonism human, read-out: B1R Ant. h [10 μM] % Inhibition; for B1R Ant. h [10 μM] % Inhibition: B1R antagonism human
T1 construct: expressed in transfected cells; host or cells: CHO K1 cells
T1 sequence (P46663 1-353): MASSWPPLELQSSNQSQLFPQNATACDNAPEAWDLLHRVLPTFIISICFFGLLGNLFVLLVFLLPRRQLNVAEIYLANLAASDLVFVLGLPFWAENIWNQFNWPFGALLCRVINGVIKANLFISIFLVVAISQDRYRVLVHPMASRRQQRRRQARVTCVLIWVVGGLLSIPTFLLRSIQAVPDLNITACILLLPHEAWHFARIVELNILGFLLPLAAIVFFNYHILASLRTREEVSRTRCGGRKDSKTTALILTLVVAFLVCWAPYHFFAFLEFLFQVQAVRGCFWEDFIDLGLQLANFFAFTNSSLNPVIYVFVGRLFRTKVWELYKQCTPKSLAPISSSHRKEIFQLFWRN
How it was run: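 Fluo-4 Ca2+ readout, peak fluorescence. Stable CHO K1 transfectants; compound pre-incubated 10-20 min, then EC80 agonist—Lys-Des-Arg9-BK for hB1R, Des-Arg9-BK for rB1R. % inhibition vs maximal inhibition; IC50 from multiple concentrations, duplicate/triplicate, ≥2 independent runs.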

[2] = target: T2, serotonin (5-HT) reuptake (Rattus norvegicus, UniProt P31652); experiment: Inhibition of serotonin (5HT) reuptake in synaptosomes from rat brain; assay type: biochemical; conditions: test concentration of 10 μM; for inhibition at 10 µM: read-out: 5-HT (inhibition of reuptake of serotonin, % inhibition)
T2 construct: synaptosomes are freshly isolated from areas of the rat brain; from tissue; host or cells: rat brain synaptosomes (P2 fraction)
How it was run: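 Compounds screened at 10 μM and reported as percent inhibition of serotonin uptake. Uptake measured in a freshly prepared P2 synaptosomal fraction from rat brain.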

T2 sequence (P31652 whole entry): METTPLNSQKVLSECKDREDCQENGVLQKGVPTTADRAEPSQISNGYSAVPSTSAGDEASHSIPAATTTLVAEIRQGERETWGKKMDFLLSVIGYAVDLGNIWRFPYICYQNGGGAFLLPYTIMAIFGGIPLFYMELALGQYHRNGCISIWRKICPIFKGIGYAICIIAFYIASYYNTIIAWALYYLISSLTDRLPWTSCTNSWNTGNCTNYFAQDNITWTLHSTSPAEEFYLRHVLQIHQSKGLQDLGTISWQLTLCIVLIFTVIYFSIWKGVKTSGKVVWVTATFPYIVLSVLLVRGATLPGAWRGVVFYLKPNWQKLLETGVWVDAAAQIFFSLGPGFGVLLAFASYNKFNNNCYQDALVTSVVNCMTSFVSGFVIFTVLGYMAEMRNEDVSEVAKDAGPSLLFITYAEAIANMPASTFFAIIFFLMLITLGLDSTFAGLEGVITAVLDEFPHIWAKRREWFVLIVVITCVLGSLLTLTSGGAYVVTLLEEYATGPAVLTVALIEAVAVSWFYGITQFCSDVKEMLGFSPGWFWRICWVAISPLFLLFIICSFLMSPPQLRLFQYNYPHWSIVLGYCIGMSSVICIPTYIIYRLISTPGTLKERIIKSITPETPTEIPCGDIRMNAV

Row | SMILES | inhibition at 10 µM [1] | inhibition at 10 µM [2] | B1R Ant. h [10 μM] % Inhibition [1] | 5-HT (inhibition of reuptake of serotonin, % inhibition) ([2]; 10 µM) | 5-HT (inhibition of reuptake of serotonin, % inhibition) [2]
1 | CCN(CCOCC(=O)NCCC1CCC(C(c2cccs2)N(C)C)CC1)S(=O)(=O)c1c(C)cc(OC)c(C)c1C (stereo not shown) [Example 103, N-(2-(4-((dimethylamino)(thiophen-2-yl)methyl)cyclohexyl)ethyl)-2-(2-(N-ethyl-4-methoxy-2,3,6-trimethylphenylsulfonamido)ethoxy)acetamide] | 90% | 95% | – | – | –
2 | COc1cc(C)c(S(=O)(=O)N2CCC(CCOCC(=O)NC3CCC(C(c4cccc(F)c4)N(C)C)CC3)CC2)c(C)c1C (stereo not shown) [Example 118, N-(4-((dimethylamino)(3-fluorophenyl)methyl)cyclohexyl)-2-(2-(1-(4-methoxy-2,3,6-trimethylphenylsulfonyl)piperidin-4-yl)ethoxy)acetamide] | 23% | 92% | – | – | –
3 | CN(C)C(c1cccs1)C1CCC(CCNC(=O)COC2CCN(S(=O)(=O)c3cccc(C(F)(F)F)c3)C2)CC1 (stereo not shown) [Example 96, N-(2-(4-((dimethylamino)(thiophen-2-yl)methyl)cyclohexyl)ethyl)-2-(1-(3-(trifluoromethyl)phenylsulfonyl)pyrrolidin-3-yloxy)acetamide] | 4% | 81% | – | – | –
4 | COc1ccc(S(=O)(=O)N2CCCCC2COCC(=O)NCCC2CCC(C(c3cccc(F)c3)N(C)C)CC2)cc1OC (stereo not shown) [Example 581] | – | – | 2% | 70% | –
5 | COc1ccc(S(=O)(=O)N2CCCCC2COCC(=O)NCC2CCC(C(c3ccc(F)cc3)N(C)C)CC2)cc1OC (single isomer, unassigned) [Example 537] | – | – | −15% | 92% | –
6 | CN(C)C(CCc1ccccc1)C1CCC(CNC(=O)COC2CCN(S(=O)(=O)c3cccc(C(F)(F)F)c3)C2)CC1 (stereo not shown) [Example 552] | – | – | 49% | – | 90%
7 | CN(C)C(CCc1ccccc1)C1CCC(CNC(=O)COCCN(C)S(=O)(=O)c2cccc(C(F)(F)F)c2)CC1 (stereo not shown) [Example 556] | – | – | 82% | – | 86%
8 | CN(C)C(CCc1ccccc1)C1CCC(CNC(=O)COCCN(C)S(=O)(=O)c2c(Cl)cccc2Cl)CC1 (stereo not shown) [Example 476] | – | – | 103% | 80% | –
9 | COc1ccc(S(=O)(=O)N2CCCCC2COCC(=O)NCC2CCC(C(CCc3ccccc3)N(C)C)CC2)c(OC)c1 (stereo not shown) [Example 420] | – | – | −7% | 74% | –
10 | CCN(CCOCC(=O)NCC1CCC(C(c2cccc(F)c2)N(C)C)CC1)S(=O)(=O)c1c(C)cc(OC)c(C)c1C (stereo not shown) [Example 117, N-((4-((dimethylamino)(3-fluorophenyl)methyl)cyclohexyl)methyl)-2-(2-(N-ethyl-4-methoxy-2,3,6-trimethylphenylsulfonamido)ethoxy)acetamide] | 76% | 94% | – | – | –
11 | COc1ccc(S(=O)(=O)N(C)CCOCC(=O)NCC2CCC(C(CCc3ccccc3)N(C)C)CC2)cc1 (stereo not shown) [Example 550] | – | – | 62% | – | 74%
12 | COc1cc(C)c(S(=O)(=O)N(C)CCOCC(=O)NC2CCC(C(c3cccs3)N(C)C)CC2)c(C)c1 (stereo not shown) [Example 111, N-(4-((dimethylamino)(thiophen-2-yl)methyl)cyclohexyl)-2-(2-(4-methoxy-N,2,6-trimethylphenylsulfonamido)ethoxy)acetamide] | 102% | 85% | – | – | –
13 | CN(C)C(c1cccs1)C1CCC(CCNC(=O)COCCN2CCN(S(=O)(=O)c3ccccc3)CC2)CC1 (stereo not shown) [Example 99, N-(2-(4-((dimethylamino)(thiophen-2-yl)methyl)cyclohexyl)ethyl)-2-(2-(4-(phenylsulfonyl)piperazin-1-yl)ethoxy)acetamide] | -8% | 95% | – | – | –
14 | CN(C)C(c1cccc(F)c1)C1CCC(CNC(=O)COCC2CCCN2S(=O)(=O)c2ccc(Cl)c(Cl)c2)CC1 (stereo not shown) [Example 119, 2-((1-(3,4-dichlorophenylsulfonyl)pyrrolidin-2-yl)methoxy)-N-((4-((dimethylamino)(3-fluorophenyl)methyl)cyclohexyl)methyl)acetamide] | 67% | 96% | – | – | –
15 | CN(C)C(c1cccs1)C1CCC(CNC(=O)COCCN(C)S(=O)(=O)c2ccc(Cl)cc2Cl)CC1 (stereo not shown) [Example 8, 2-(2-(2,4-dichloro-N-methylphenylsulfonamido)ethoxy)-N-((4-((dimethylamino)(thiophen-2-yl)methyl)cyclohexyl)methyl)acetamide] | 101% | 81% | – | – | –
16 | COc1ccc(S(=O)(=O)N2CCCC2COCC(=O)NCC2CCC(C(CCc3ccccc3)N(C)C)CC2)cc1 (stereo not shown) [Example 572] | – | – | 50% | – | 93%
17 | COc1ccc(S(=O)(=O)N2CCCCC2COCC(=O)NCC2CCC(C(c3ccc(F)cc3)N(C)C)CC2)cc1OC (single isomer, unassigned) [Example 534] | – | – | −18% | 88% | –
18 | COc1cc(C)c(S(=O)(=O)N(CCOCC(=O)NCCC2CCC(C(c3ccc(F)cc3)N(C)C)CC2)Cc2ccccc2)c(C)c1 (stereo not shown) [Example 547] | – | – | 76% | – | 90%
19 | COc1ccc(S(=O)(=O)N2CCCC2COCC(=O)NCC2CCC(C(c3cccs3)N(C)C)CC2)cc1 (stereo not shown) [Example 105, N-((4-((dimethylamino)(thiophen-2-yl)methyl)cyclohexyl)methyl)-2-((1-(4-methoxyphenylsulfonyl)pyrrolidin-2-yl)methoxy)acetamide] | 33% | 95% | – | – | –
20 | COc1cc(C)c(S(=O)(=O)N(CCOCC(=O)NCCC2CCC(C(c3ccc(Cl)cc3)N(C)C)CC2)Cc2ccccc2)c(C)c1C (stereo not shown) [Example 576] | – | – | −6% | – | 73%
21 | COc1ccc(S(=O)(=O)N2CCCCC2COCC(=O)NCCC2CCC(C(c3cccs3)N(C)C)CC2)cc1OC (stereo not shown) [Example 120, 2-((1-(3,4-dimethoxyphenylsulfonyl)piperidin-2-yl)methoxy)-N-(2-(4-((dimethylamino)(thiophen-2-yl)methyl)cyclohexyl)ethyl)acetamide] | -12% | 91% | – | – | –
22 | COc1ccc(S(=O)(=O)N2CCCCC2COCC(=O)NCC2CCC(C(c3ccccc3)N(C)C)CC2)c(OC)c1 (stereo not shown) [Example 106, 2-((1-(2,4-dimethoxyphenylsulfonyl)piperidin-2-yl)methoxy)-N-((4-((dimethylamino)(phenyl)methyl)cyclohexyl)methyl)acetamide] | 4% | 85% | – | – | –
23 | CN(C)C(c1ccccc1)C1CCC(CNC(=O)COC2CCN(S(=O)(=O)c3cccc(C(F)(F)F)c3)C2)CC1 (stereo not shown) [Example 113, N-((4-((dimethylamino)(phenyl)methyl)cyclohexyl)methyl)-2-(1-(3-(trifluoromethyl)phenylsulfonyl)pyrrolidin-3-yloxy)acetamide] | -1% | 88% | – | – | –
